Data taken from US9855265B2, “Methods for treating cancer with TrkA receptor tyrosine kinase antagonists” (VM Oncology LLC, priority 2014, dated 2018).

Columns and labels:
[1] = test system: SK-HEP-1 human liver cancer cells; assay: Cell Viability and Proliferation Assay, SK-HEP-1; format: cell-based; conditions: SK-HEP1, after 24 incubation
Description: (§1) Cell Viability and Proliferation Assays. To assess the chemosensitivity of tumor cells, cell viability is measured by CellTiter-Glo® Luminescent Cell Viability Assay (Promega; Wis., USA) per the manufacturer's instruction. Briefly, 5×10^3 to 7×10^5 cells/ml are cultured in sterile 96-well plates in the presence of increasing concentrations of the drugs (test article, 0 to 100 μM), or vehicle in RPMI medium. The plates are then incubated for 24 to 96 h, and then 100 μl of CellTiter-Glo reagent is added to lyse the cells. After a 10-min incubation at room temperature, the luminescence is recorded in a luminometer with an integration time of 1 s per well. The luminescence signals for the drug-treated cells are normalized by the luminescence signal obtained from vehicle-treated cells. As an alternative method to quantitate cell viability, the trypan blue exclusion dye method was used. Vehicle- or drug-treated cells were assayed by adding trypan blue solution (0.4% in phosphate-buffered saline [PBS]) to the culture medium. After 3 min, the number of dead cells that retained the dye is compared to the total number of cells to calculate cell viability. GraphPad Prism 5 software is used to calculate IC50 and plot effect-dose curve of drugs. Multiplate reader: EnVision 2104 (PerkinElmer). % of control variability=100*[(X(drug_treated)−L(baseline))/(H(vehicle_control)−L(baseline))]. […]

PKCeta = PKCeta (Homo sapiens, UniProt P24723); assay: radiometric kinase assay, other kinases: PKCeta; format: biochemical; conditions: duplicate
Chain of PKCeta (P24723 whole entry): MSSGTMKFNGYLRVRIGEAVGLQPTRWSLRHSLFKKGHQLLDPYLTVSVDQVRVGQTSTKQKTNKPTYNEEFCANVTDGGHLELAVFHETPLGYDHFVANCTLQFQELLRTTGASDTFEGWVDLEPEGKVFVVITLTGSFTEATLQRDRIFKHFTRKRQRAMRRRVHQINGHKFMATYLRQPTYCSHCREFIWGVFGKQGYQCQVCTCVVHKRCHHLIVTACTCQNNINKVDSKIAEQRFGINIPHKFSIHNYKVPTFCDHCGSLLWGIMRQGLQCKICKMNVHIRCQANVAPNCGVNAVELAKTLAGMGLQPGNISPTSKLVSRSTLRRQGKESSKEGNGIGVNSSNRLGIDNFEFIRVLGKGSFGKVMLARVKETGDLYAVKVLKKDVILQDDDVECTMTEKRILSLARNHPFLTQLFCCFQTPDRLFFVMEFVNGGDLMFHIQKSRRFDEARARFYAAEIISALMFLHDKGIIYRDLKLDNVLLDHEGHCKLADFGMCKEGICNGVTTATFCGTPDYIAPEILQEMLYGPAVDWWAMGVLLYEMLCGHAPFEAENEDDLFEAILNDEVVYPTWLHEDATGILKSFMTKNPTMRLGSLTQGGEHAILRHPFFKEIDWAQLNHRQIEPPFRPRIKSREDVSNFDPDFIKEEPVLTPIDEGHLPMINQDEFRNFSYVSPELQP
Description: (§2) Compound inhibition in a radiometric based mixed micelle assay: In a final reaction volume of 25 μL, TrkA (h) ([…]) is incubated with the kinase reaction buffer (20 mM HEPES (pH 7.5), 10 mM MgCl2, 1 mM EGTA, 0.02% Brij 35, 0.02 mg/ml BSA, 0.1 mM Na3VO4, 2 mM DTT, 1% DMSO), 0.2 mg/ml substrate PolyEY(4:1) and […], and [^33P-ATP](specific activity approx. 500 cpm/pmol, concentration as required). The reaction is initiated by the addition of the MgATP mix. After incubation for at least 40 minutes at room temperature, the reaction is stopped by the addition of 5 μL of a 3% phosphoric acid solution. 10 μL of the reaction is then spotted onto a P30 filtermat and washed three times for 5 minutes in 75 mM phosphoric acid and once in methanol prior to drying and scintillation counting. TrkA: Recombinant Human Cytoplasmic Domain (amino acids 441-796), Histidine-tagged, expressed in insect cells. Activated in vitro via auto-phosphorylation. Mw=42.8 kDa. Substrates for kinases: poly(EY) for TRKA; poly(EY)(4:1) with 2 mM MnCl2, average Mw=16 kDa Standard conditions (unless otherwise specified): 30 nM TRKA, 0.2 mg/ml poly(EY)+2 mM MnCl2, and 10 μM ([γ-^33P]) ATP. Using the similar assay condition with other kinases of recombinant human cytoplasmic domain, the activities of other kinases could be also measured.

TrkB = TrkB (Homo sapiens, UniProt Q16620); assay: live whole cell based functional assay, BDNF stimulated TrkB activation; set-up: expressed in transfected cells; conditions: triplicate
Chain of TrkB (Q16620 32-822): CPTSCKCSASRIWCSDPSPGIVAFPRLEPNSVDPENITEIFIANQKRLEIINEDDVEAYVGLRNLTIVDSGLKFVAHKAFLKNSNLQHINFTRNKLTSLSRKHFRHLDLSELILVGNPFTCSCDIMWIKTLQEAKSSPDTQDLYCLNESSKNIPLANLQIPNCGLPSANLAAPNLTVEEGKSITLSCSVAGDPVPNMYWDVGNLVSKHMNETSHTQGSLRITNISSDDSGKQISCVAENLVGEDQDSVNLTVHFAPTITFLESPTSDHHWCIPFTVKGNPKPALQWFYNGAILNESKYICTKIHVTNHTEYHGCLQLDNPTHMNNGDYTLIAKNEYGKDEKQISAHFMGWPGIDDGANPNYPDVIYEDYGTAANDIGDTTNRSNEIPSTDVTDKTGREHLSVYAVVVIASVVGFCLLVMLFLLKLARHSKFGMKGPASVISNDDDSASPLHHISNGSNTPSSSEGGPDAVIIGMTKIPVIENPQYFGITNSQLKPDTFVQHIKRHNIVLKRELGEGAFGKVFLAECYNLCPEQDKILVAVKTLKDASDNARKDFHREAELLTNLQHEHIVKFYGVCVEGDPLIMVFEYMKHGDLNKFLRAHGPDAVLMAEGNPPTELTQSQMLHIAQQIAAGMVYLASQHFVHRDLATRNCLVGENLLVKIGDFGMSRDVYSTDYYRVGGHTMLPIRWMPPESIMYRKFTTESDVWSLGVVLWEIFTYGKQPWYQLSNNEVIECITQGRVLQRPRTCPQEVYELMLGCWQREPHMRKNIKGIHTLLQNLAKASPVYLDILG

[2] = test system: NCI-N87 human stomach cancer cells; assay: Cell Viability and Proliferation Assay, NCI-N87; format: cell-based; conditions: after 24 incubation
Description: as §1

PKCzeta = PKCzeta (Homo sapiens, UniProt Q05513); assay: radiometric kinase assay, other kinases: PKCzeta; format: biochemical; conditions: duplicate
Description: as §2

RAF1 = RAF1 (Homo sapiens, UniProt P04049); assay: radiometric kinase assay, other kinases: RAF1; format: biochemical; conditions: duplicate
Description: as §2

VEGFR3/FLT4 = target: T1, VEGFR3/FLT4 (Homo sapiens, UniProt P35916); assay: radiometric kinase assay, other kinases: VEGFR3/FLT4; format: biochemical; conditions: duplicate
T1 construct: other kinases of recombinant human cytoplasmic domain
Description: as §2

IR = target: T2, IR (Homo sapiens, UniProt P06213); assay: radiometric kinase assay, other kinases: IR; format: biochemical; conditions: duplicate
T2 construct: other kinases of recombinant human cytoplasmic domain
T2 sequence (P06213 980-1382 limits assumed): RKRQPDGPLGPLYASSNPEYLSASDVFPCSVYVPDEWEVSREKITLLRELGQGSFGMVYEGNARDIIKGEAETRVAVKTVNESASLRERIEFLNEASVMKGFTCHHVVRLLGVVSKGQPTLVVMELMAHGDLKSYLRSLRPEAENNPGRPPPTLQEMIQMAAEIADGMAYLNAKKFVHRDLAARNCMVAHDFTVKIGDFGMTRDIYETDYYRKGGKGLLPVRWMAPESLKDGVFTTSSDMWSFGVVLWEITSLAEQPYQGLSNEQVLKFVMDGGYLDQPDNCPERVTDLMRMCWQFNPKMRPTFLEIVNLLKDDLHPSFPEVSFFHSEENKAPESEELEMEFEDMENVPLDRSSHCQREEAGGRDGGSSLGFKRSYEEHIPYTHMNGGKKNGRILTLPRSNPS
Description: as §2

TEC = TEC (Homo sapiens, UniProt P42680); assay: radiometric kinase assay, other kinases: TEC; format: biochemical; conditions: duplicate
Description: as §2

IGF-1R = target: T3, IGF-1R (Homo sapiens, UniProt P08069); assay: radiometric kinase assay, other kinases: IGF-1R; format: biochemical; conditions: duplicate
T3 construct: other kinases of recombinant human cytoplasmic domain
T3 sequence (P08069 960-1367 limits assumed): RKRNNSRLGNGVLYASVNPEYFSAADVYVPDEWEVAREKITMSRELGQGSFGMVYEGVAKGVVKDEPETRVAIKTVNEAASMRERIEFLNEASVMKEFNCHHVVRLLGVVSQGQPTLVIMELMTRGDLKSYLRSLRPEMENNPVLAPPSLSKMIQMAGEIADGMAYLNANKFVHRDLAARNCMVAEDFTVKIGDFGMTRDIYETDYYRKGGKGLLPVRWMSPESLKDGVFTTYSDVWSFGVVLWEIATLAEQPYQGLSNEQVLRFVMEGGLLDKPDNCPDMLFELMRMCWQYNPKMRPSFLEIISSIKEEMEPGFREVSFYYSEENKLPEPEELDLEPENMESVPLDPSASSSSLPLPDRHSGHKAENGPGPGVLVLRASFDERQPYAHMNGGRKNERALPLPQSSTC
Description: as §2

FMS = target: T4, FMS (Homo sapiens, UniProt P07333); assay: radiometric kinase assay, other kinases: FMS; format: biochemical; conditions: duplicate
T4 construct: other kinases of recombinant human cytoplasmic domain
T4 sequence (P07333 539-972 limits assumed): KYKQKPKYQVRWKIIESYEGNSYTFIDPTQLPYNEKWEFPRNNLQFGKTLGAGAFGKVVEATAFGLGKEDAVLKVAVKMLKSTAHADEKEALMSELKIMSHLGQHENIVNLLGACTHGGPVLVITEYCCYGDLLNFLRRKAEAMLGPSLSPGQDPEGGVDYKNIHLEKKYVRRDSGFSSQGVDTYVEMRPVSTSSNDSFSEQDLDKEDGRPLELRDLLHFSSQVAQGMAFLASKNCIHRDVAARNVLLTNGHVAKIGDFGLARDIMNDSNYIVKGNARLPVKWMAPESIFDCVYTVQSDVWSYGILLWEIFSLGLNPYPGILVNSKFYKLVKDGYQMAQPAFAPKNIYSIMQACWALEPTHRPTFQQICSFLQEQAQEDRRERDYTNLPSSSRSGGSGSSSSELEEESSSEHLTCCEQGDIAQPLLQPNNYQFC
Description: as §2

PKD2/PRKD2 = PKD2/PRKD2 (Homo sapiens, UniProt Q9BZL6); assay: radiometric kinase assay, other kinases: PKD2/PRKD2; format: biochemical; conditions: duplicate
Chain of PKD2/PRKD2 (Q9BZL6 whole entry): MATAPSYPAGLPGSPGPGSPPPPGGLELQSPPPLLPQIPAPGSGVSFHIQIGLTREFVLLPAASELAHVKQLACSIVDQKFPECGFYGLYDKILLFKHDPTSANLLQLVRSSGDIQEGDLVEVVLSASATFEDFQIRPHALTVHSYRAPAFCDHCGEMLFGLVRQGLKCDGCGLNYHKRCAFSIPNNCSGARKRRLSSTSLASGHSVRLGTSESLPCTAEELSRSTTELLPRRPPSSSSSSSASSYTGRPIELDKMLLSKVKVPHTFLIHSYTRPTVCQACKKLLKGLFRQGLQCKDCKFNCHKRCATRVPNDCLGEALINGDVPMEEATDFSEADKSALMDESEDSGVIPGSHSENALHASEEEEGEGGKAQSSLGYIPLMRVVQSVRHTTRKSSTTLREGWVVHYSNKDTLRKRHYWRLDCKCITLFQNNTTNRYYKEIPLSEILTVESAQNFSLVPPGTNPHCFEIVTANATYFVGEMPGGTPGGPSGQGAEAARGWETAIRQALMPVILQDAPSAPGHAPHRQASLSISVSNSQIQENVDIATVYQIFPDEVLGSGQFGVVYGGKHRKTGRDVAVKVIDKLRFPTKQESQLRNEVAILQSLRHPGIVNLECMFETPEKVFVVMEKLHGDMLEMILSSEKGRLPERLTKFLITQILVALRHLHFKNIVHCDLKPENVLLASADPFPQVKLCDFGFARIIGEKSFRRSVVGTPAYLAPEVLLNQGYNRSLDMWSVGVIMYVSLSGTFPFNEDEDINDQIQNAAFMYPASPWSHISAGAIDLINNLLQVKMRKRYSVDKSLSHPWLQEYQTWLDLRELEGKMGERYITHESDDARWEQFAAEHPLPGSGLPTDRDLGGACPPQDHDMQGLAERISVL
Description: as §2

BMX = BMX (Homo sapiens, UniProt P51813); assay: radiometric kinase assay, other kinases: BMX; format: biochemical; conditions: duplicate
Description: as §2

FLT3 (CD) = target: T5, FLT3 (CD) (Homo sapiens, UniProt P36888); assay: radiometric kinase assay, other kinases: FLT3 (CD); format: biochemical; conditions: duplicate
T5 construct: other kinases of recombinant human cytoplasmic domain
Description: as §2

FGFR1 = target: T6, FGFR1 (Homo sapiens, UniProt P11362); assay: radiometric kinase assay, other kinases: FGFR1; format: biochemical; conditions: duplicate
T6 construct: other kinases of recombinant human cytoplasmic domain
T6 sequence (P11362 398-822 limits assumed): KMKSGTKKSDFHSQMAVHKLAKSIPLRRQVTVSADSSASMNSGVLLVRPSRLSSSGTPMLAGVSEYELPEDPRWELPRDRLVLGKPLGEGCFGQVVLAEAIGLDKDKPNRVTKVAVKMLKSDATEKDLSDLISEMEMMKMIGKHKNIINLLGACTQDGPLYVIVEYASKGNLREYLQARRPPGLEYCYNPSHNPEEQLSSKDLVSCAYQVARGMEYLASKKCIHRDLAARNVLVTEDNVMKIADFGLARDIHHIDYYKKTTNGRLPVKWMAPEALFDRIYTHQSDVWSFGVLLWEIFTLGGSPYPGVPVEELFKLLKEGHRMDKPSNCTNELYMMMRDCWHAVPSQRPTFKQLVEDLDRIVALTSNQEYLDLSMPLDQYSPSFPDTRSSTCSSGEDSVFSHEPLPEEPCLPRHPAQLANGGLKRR
Description: as §2

[3] = test system: MIA PaCa-2 human pancreatic cancer cells; assay: Cell Viability and Proliferation Assay, MIA PaCa-2; format: cell-based; conditions: after 24 incubation
Description: as §1

PKCepsilon = PKCepsilon (Homo sapiens, UniProt Q02156); assay: radiometric kinase assay, other kinases: PKCepsilon; format: biochemical; conditions: duplicate
Description: as §2

MUSK = target: T7, MUSK (Homo sapiens, UniProt O15146); assay: radiometric kinase assay, other kinases: MUSK; format: biochemical; conditions: duplicate
T7 construct: other kinases of recombinant human cytoplasmic domain
T7 sequence (O15146 517-869 limits assumed): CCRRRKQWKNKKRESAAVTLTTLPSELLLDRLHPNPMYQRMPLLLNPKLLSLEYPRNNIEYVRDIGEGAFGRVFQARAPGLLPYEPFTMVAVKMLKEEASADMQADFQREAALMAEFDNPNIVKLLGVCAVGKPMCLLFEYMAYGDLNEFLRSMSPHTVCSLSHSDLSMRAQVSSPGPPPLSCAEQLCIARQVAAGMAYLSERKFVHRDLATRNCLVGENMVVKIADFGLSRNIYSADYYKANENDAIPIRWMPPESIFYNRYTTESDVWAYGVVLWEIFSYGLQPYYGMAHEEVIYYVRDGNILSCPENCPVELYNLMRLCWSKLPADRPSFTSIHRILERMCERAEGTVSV
Description: as §2

PKA = PKA (Homo sapiens, UniProt P17612); assay: radiometric kinase assay, other kinases: PKA; format: biochemical; conditions: duplicate
Description: as §2

[4] = test system: PANC-1 subcutaneous human pancreatic cancer xenografts; assay: PANC-1 Subcutaneous Human Pancreatic Cancer Xenograft Mouse Model
Description: Temperature: 22±3° C. Humidity: 50±20%. Light cycle: 12 hours light and 12 hours dark. Cages: Polycarbonate cages of 300 mm×180 mm×150 mm embedded with the soft wood material were used. The bedding was changed twice a week. Diet: Animals had free access to a certified commercial laboratory diet. Concentrations of contaminants in the diet are routinely analyzed by the manufacturers to ensure the contaminants are below their allowable maximum and thus would not affect the tumor growth.
Water: Animals had free access to sterile drinking water. Cage identification: The identification labels for each cage contained the following information: number of animals, sex, strain, date received, treatment, group number and the starting date of the treatment. Briefly, PANC-1 cell line was originally purchased from the ATCC (CRL-1469) and the PANC-1 primary cell line was derived from the PANC-1 subcutaneously xenograft tumors. The PANC-1 primary cells were maintained in vitro as monolayer culture in DMEM medium supplemented with 10% heat inactivated fetal bovine serum, 100 U/ml penicillin and 100 μg/ml streptomycin and L-glutamine (2 mM) at 37° C. in an atmosphere of 5% CO2 air. The cells growing in exponential phase were harvested and counted for tumor inoculation.
Tumor Cell Inoculation and Randomization. Each animal was inoculated subcutaneously on the right flank with the PANC-1 primary tumor cells (5×10^6/animal) in 0.1 mL of PBS. Tumor development was allowed undisrupted until mean tumor volume reached approximately 85 mm^3. Animals were then randomized into 6 groups, with each group consisting of 8 animals. The test articles were administered to the tumor-bearing animals according to predetermined regimens. […] At the time of routine monitoring, the animals were checked for any effects of tumor growth on normal behavior such as mobility, food and water consumption (by looking only), body weight (BW) gain/loss (BW was measured twice weekly), eye/hair matting and any other abnormal effect. Death and observed clinical signs were recorded on the basis of the numbers of animals within each subset.
Tumor Measurement and the Endpoints: The major endpoint was to evaluate if the tumor growth could be inhibited. Tumor measurement was conducted twice weekly with a caliper and the tumor volume (mm3) is estimated using the formula: TV=a×b^2/2, where a and b are long and short diameters of a tumor, respectively. The tumor sizes were then used for T/C value and TGI (tumor growth inhibition), which are indicators of anti-tumor effectiveness. The T/C value (in percent) is an indication of antitumor effect. T and C are the mean volumes of the treated and control groups, respectively, on a given day. BW change, expressed as %, is calculated using the following formula: BW change (%)=(BW_DayX/BW_Day0)×100, where BW_DayX is BW on a given day, and BW_Day0 was BW on Day 0 (tumor inoculation).
Tumor Sample Collection: Two tumor samples from Group 1, 2 and 3, respectively; six tumor samples from Group 4; five tumor samples from Group 5 and 6, respectively, were snap frozen in liquid nitrogen and kept at −80° C. Total 22 tumor samples were collected.
Statistical Analyses: A one-way ANOVA was performed to compare tumor volumes among groups. All data were analyzed using the SPSS 17.0 software; p<0.05 was considered statistically significant.

P38b/MAPK11 = P38b/MAPK11 (Homo sapiens, UniProt Q15759); assay: radiometric kinase assay, other kinases: P38b/MAPK11; format: biochemical; conditions: duplicate
Chain of P38b/MAPK11 (Q15759 whole entry): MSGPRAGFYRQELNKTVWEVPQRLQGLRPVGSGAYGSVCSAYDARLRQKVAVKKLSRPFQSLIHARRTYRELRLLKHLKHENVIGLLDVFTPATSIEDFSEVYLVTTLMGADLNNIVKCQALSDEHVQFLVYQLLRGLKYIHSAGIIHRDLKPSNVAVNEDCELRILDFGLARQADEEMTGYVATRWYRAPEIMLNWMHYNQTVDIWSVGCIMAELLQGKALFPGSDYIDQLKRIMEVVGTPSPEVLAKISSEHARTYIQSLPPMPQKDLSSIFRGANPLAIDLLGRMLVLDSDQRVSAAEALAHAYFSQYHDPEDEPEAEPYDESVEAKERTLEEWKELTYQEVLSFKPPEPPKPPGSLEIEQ
Description: as §2

[5] = test system: HepG2 human liver cancer cells; assay: Cell Viability and Proliferation Assay, HepG2; format: cell-based; conditions: after 24 incubation
Description: as §1

FES/FPS = FES/FPS (Homo sapiens, UniProt P07332); assay: radiometric kinase assay, other kinases: FES/FPS; format: biochemical; conditions: duplicate
Description: as §2

[6] = test system: AsPC-1 human pancreatic cancer cells; assay: Cell Viability and Proliferation Assay, AsPC-1; format: cell-based; conditions: ASPC1, after 24 incubation
Description: as §1

IC50 [1]: ~5 µM
IC50 (PKCeta): > 10 µM
IC50 (TrkB): > 10 µM
IC50 [2]: ~7 µM
IC50 (PKCzeta): > 10 µM
IC50 (RAF1): > 10 µM
IC50 (VEGFR3/FLT4): > 10 µM
IC50 (IR): > 10 µM
IC50 (TEC): > 10 µM
IC50 (IGF-1R): > 10 µM
IC50 (FMS): > 10 µM
IC50 (PKD2/PRKD2): > 10 µM
IC50 (BMX): > 10 µM
IC50 (FLT3 (CD)): > 10 µM
IC50 (FGFR1): > 10 µM
IC50 [3]: 2 to 5 µM
IC50 (PKCepsilon): > 10 µM
IC50 (MUSK): > 10 µM
IC50 (PKA): > 10 µM
IC50 (P38b/MAPK11): > 10 µM
IC50 [5]: ~5 µM
IC50 (FES/FPS): > 10 µM
IC50 [6]: 2 to 5 µM
SMILES: Nc1c(N2CCN(C3CCCCC3)CC2)cc(Nc2ccc(C(=O)O)cc2)c2c1C(=O)c1ccccc1C2=O [Compound 12, 4-{[4-amino-3-(4-cyclohexylpiperazin-1-yl)-9,10-dioxo-9,10-dihydroanthracen-1-yl]amino}benzoic acid]
TGI (%, D18) ([4]; D18, Compound-12 alone, dose not given): 34%
Tumor volume (Mean ± SEM) ([4]; Day 7, Compound-12 alone, dose not given): 84 ± 4 mm^3
Tumor volume (Mean ± SEM) ([4]; Day 11, Compound-12 alone, dose not given): 111 ± 5 mm^3
Tumor volume (Mean ± SEM) ([4]; Day 14, Compound-12 alone, dose not given): 157 ± 15 mm^3
Tumor volume (Mean ± SEM) ([4]; Day 18, Compound-12 alone, dose not given): 234 ± 8 mm^3
Tumor volume (Mean ± SEM) ([4]; Day 19, Compound-12 alone, dose not given): 276 ± 27 mm^3
anti-tumor efficacy in words ([4]; alone or in combination with gemcitabine): efficacious in reducing tumor growth
